Measurements: article PMC9005681, “Use of AD Informer Set compounds to explore validity of novel targets in Alzheimer's disease pathology” (Alzheimer's & Dementia : Translational Research & Clinical …, 2022)

What was measured:
Experiment in all cases: PDSP GPCR panel primary binding assays at 10 μM
[1] = biological target: T1, cloned human or rodent CNS receptors, channels, and transporters (PDSP panel) (Homo sapiens, UniProt P08172); settings: primary assay
T1 construct: expressed in transfected cells
T1 sequence (P08172 1-466): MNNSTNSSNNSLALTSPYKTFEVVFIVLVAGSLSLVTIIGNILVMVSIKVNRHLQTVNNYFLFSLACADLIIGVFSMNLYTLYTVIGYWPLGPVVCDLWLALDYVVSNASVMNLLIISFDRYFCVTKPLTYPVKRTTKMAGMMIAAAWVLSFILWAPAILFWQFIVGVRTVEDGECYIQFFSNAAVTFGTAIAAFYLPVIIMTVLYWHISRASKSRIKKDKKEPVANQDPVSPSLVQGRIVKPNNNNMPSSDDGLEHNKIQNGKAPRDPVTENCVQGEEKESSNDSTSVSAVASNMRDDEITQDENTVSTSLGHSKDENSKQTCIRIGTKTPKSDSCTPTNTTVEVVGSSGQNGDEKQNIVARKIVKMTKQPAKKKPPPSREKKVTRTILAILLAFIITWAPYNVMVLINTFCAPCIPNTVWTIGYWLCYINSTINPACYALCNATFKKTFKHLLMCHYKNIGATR
How it was run: (§1)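 Each compound is first screened once at 10 μM, in quadruplicate, for radioligand displacement. Where mean displacement passes 50%, an 11-point dose-response in triplicate follows at that target, except at H3, PBR and GABAA.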

[2] = biological target: T2, cloned human or rodent CNS receptors, channels, and transporters (PDSP panel) (Homo sapiens, UniProt P18089); settings: Receptor Alpha2B, primary assay, 10 μM; for Mean %: mean of Inhibition 1-4
T2 construct: expressed in transfected cells
T2 sequence (P18089 1-450): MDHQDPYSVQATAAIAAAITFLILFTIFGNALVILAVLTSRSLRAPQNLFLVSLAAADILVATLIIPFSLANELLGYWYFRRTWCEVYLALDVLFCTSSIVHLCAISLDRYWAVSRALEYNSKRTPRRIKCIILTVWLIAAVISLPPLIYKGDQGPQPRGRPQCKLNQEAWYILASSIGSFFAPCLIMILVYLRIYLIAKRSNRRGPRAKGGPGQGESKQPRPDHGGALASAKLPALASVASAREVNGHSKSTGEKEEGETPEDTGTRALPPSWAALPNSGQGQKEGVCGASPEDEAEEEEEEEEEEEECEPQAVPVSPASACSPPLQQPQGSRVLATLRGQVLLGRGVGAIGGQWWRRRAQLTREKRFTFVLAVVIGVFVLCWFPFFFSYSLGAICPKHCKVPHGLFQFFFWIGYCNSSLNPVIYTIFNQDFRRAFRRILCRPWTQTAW
How it was run: as §1

[3] = biological target: T3, cloned human or rodent CNS receptors, channels, and transporters (PDSP panel) (Homo sapiens, UniProt P20309); settings: Receptor M3, primary assay, 10 μM; for Mean %: mean of Inhibition 1-4
T3 construct: expressed in transfected cells
How it was run: as §1

[4] = biological target: T4, cloned human or rodent CNS receptors, channels, and transporters (PDSP panel) (Homo sapiens, UniProt P25021); settings: primary assay
T4 construct: expressed in transfected cells
How it was run: as §1

[5] = biological target: T5, cloned human or rodent CNS receptors, channels, and transporters (PDSP panel) (Homo sapiens, UniProt P25100); settings: Receptor Alpha1D, primary assay, 10 μM; for Mean %: mean of Inhibition 1-4
T5 construct: expressed in transfected cells
T5 sequence (P25100 1-572): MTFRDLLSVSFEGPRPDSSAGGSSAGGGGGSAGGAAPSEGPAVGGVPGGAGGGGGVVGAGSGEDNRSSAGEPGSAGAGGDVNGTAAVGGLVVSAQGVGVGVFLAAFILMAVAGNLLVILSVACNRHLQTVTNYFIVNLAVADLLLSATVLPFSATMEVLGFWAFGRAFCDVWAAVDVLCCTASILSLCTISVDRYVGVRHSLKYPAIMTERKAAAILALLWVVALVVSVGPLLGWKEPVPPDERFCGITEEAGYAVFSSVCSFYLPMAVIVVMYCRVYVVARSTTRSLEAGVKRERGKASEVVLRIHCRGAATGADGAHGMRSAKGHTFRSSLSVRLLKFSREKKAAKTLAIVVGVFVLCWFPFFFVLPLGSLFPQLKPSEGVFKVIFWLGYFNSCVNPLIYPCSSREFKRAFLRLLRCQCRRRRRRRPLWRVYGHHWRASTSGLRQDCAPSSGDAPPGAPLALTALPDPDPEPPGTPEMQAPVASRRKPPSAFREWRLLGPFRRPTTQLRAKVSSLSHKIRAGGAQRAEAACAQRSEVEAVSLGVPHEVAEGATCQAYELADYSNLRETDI
How it was run: as §1

[6] = biological target: T6, cloned human or rodent CNS receptors, channels, and transporters (PDSP panel) (Homo sapiens, UniProt P28566); settings: Receptor 5-HT1E, primary assay, 10 μM; for Mean %: mean of Inhibition 1-4
T6 construct: expressed in transfected cells
How it was run: as §1

[7] = biological target: T7, cloned human or rodent CNS receptors, channels, and transporters (PDSP panel) (Homo sapiens, UniProt P35372); settings: Receptor MOR, primary assay, 10 μM; for Mean %: mean of Inhibition 1-4
T7 construct: expressed in transfected cells
How it was run: as §1

[8] = biological target: T8, cloned human or rodent CNS receptors, channels, and transporters (PDSP panel) (Homo sapiens, UniProt Q01959); settings: primary assay
T8 construct: expressed in transfected cells
How it was run: as §1

[9] = Receptor M2, 10 μM, mean of Inhibition 1-4
[10] = Receptor H2, 10 μM, mean of Inhibition 1-4
[11] = Receptor DAT, 10 μM, mean of Inhibition 1-4

T7 sequence (P35372 whole entry): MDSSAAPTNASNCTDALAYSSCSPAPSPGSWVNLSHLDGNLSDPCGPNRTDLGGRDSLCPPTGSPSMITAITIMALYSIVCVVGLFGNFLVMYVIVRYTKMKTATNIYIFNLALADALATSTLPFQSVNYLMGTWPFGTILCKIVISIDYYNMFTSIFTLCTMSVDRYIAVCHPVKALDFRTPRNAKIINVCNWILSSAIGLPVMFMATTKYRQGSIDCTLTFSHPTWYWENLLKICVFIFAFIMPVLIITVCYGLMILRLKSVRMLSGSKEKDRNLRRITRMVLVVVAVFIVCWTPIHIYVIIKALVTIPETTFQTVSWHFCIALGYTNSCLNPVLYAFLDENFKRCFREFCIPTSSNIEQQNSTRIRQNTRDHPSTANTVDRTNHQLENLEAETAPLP
T3 sequence (P20309 whole entry): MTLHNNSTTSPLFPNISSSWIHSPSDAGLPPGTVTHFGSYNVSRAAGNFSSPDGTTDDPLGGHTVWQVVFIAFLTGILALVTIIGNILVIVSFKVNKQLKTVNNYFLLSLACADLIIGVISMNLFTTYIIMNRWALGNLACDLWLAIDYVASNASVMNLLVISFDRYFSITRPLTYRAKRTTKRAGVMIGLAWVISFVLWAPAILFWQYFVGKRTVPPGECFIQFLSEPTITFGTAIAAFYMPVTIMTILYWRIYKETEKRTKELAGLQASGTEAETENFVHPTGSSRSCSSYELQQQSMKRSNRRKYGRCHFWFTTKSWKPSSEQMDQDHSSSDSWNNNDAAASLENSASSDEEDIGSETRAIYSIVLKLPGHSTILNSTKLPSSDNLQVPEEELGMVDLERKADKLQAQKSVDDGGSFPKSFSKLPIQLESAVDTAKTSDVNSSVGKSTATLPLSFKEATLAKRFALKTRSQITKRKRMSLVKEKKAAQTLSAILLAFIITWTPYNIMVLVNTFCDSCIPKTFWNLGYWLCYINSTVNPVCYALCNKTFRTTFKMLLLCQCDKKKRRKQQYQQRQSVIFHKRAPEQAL
T4 sequence (P25021 whole entry): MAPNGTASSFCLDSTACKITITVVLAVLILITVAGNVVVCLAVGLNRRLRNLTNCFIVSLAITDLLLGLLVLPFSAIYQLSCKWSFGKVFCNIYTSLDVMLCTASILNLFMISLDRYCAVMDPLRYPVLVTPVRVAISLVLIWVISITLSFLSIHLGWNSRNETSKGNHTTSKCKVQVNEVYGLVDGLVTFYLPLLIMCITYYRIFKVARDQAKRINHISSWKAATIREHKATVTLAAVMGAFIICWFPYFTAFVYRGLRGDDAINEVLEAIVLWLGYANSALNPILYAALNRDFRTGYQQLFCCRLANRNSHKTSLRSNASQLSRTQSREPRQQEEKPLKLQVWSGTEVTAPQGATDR
T6 sequence (P28566 whole entry): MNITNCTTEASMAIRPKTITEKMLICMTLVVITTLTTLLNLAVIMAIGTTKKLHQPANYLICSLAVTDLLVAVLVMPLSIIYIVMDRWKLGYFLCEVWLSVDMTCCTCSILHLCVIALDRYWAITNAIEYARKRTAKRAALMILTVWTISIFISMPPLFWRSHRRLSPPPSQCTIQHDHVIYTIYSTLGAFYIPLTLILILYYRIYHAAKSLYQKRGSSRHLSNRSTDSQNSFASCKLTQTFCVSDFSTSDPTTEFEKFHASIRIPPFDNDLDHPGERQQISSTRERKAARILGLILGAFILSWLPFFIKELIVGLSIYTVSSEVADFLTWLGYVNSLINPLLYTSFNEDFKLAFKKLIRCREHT
T8 sequence (Q01959 whole entry): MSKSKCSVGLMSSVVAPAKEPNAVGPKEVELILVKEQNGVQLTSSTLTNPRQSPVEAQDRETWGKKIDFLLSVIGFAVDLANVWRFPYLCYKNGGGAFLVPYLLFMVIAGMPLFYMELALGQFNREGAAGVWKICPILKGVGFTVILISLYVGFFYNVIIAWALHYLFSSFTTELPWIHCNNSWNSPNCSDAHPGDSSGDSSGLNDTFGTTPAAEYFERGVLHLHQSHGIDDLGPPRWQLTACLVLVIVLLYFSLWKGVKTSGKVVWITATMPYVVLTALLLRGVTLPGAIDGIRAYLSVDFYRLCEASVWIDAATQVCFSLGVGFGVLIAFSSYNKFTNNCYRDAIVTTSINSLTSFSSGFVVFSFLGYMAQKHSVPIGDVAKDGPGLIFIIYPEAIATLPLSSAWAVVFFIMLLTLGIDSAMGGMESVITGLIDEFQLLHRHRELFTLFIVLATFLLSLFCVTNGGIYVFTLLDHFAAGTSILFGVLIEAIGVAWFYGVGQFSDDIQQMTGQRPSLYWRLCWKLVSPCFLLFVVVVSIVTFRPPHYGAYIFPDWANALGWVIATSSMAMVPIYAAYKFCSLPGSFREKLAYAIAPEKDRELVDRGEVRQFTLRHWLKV

Row | SMILES | Inhibition 1 [2] [%] | Inhibition 2 [2] [%] | Inhibition 3 [2] [%] | Inhibition 4 [2] [%] | Mean % [2] [%] | Inhibition 1 [3] [%] | Inhibition 2 [3] [%] | Inhibition 3 [3] [%] | Inhibition 4 [3] [%] | Mean % [3] [%] | Inhibition 1 [5] [%] | Inhibition 2 [5] [%] | Inhibition 3 [5] [%] | Inhibition 4 [5] [%] | Mean % [5] [%] | Inhibition 1 [6] [%] | Inhibition 2 [6] [%] | Inhibition 3 [6] [%] | Inhibition 4 [6] [%] | Mean % [6] [%] | other results
1 | O=c1oc2ccccc2cc1-c1cn2cc(Cc3ccc(F)cc3)sc2n1 [UNC10302680A, iMDK] | 0.83 | 1.88 | -7.31 | 7.87 | 0.82 | 9.1 | 60.54 | 10.14 | 13.11 | 23.22 | -7.71 | -9.56 | -10.98 | -17.23 | -11.37 | 3.08 | -14.65 | -14.65 | -17.01 | -10.81 | Mean % ([1]; M2, mean inhibition): -8.2%; Inhibition 1 ([1]; M2, replicate 1): -12.5%; Inhibition 2 ([1]; M2, replicate 2): -5.38%; Inhibition 3 ([1]; M2, replicate 3): -3.9%; Inhibition 4 ([1]; M2, replicate 4): -11.03%; Mean % ([4]; H2, mean inhibition): 13.61%; Inhibition 1 ([4]; H2, replicate 1): 32.28%; Inhibition 2 ([4]; H2, replicate 2): 15.29%; Inhibition 3 ([4]; H2, replicate 3): 9.61%; Inhibition 4 ([4]; H2, replicate 4): -2.74%; Inhibition 1 [7]: 9.07%; Inhibition 2 [7]: 9.93%; Inhibition 3 [7]: 2.65%; Inhibition 4 [7]: 1.88%; Mean % [7]: 5.88%; Mean % ([8]; DAT, mean inhibition): 24.58%; Inhibition 1 ([8]; DAT, replicate 1): 19.55%; Inhibition 2 ([8]; DAT, replicate 2): 22.26%; Inhibition 3 ([8]; DAT, replicate 3): 29.6%; Inhibition 4 ([8]; DAT, replicate 4): 26.9%
2 | c1cn2cc(-c3ccc4cn[nH]c4c3)nc(Nc3ccc(N4CCOCC4)cc3)c2n1 [UNC10302678A, Entospletinib (GS-9973)] | 1.15 | 1.83 | -12.73 | -4.05 | -3.45 | 13.32 | 23.97 | 7.51 | 7.37 | 13.04 | -9.56 | -12.54 | -12.26 | -10.27 | -11.16 | -2.53 | -10.95 | -16.42 | -0.46 | -7.59 | Inhibition 1 ([1]; Receptor M2, 10 μM): -17.67%; Inhibition 2 ([1]; Receptor M2, 10 μM): -16.44%; Inhibition 3 ([1]; Receptor M2, 10 μM): -12.26%; Inhibition 4 ([1]; Receptor M2, 10 μM): -13.73%; Mean % [1, 9]: -15.03%; Inhibition 1 ([4]; Receptor H2, 10 μM): 34.86%; Inhibition 2 ([4]; Receptor H2, 10 μM): 31.07%; Inhibition 3 ([4]; Receptor H2, 10 μM): 0.58%; Inhibition 4 ([4]; Receptor H2, 10 μM): -19.99%; Mean % [4, 10]: 11.63%; Inhibition 1 [7]: -0.9%; Inhibition 2 [7]: 12.23%; Inhibition 3 [7]: 5.91%; Inhibition 4 [7]: -3.58%; Mean % [7]: 3.42%; Inhibition 1 ([8]; Receptor DAT, 10 μM): 27.87%; Inhibition 2 ([8]; Receptor DAT, 10 μM): 18.37%; Inhibition 3 ([8]; Receptor DAT, 10 μM): 25.5%; Inhibition 4 ([8]; Receptor DAT, 10 μM): 31.55%; Mean % [8, 11]: 25.82%
3 | CCCCNc1ncc2c(-c3ccc(CN4CCN(C)CC4)cc3)cn([C@H]3CC[C@H](O)CC3)c2n1 [UNC2025C, UNC2025] | 27.09 | 28.85 | -0.55 | 53.34 | 27.18 | -7.29 | -5.9 | -6.87 | 2.81 | -4.31 | 50.98 | 57.37 | 48.7 | 44.3 | 50.34 | 4.71 | -8.74 | 0.13 | -9.18 | -3.27 | Inhibition 1 ([1]; Receptor M2, 10 μM): 32.43%; Inhibition 2 ([1]; Receptor M2, 10 μM): 20.76%; Inhibition 3 ([1]; Receptor M2, 10 μM): 14.93%; Inhibition 4 ([1]; Receptor M2, 10 μM): 24.5%; Mean % [1, 9]: 23.16%; Inhibition 1 ([4]; Receptor H2, 10 μM): 36.84%; Inhibition 2 ([4]; Receptor H2, 10 μM): 35.2%; Inhibition 3 ([4]; Receptor H2, 10 μM): 22.04%; Inhibition 4 ([4]; Receptor H2, 10 μM): 12.62%; Mean % [4, 10]: 26.68%; Inhibition 1 [7]: 9.74%; Inhibition 2 [7]: 12.91%; Inhibition 3 [7]: 2.36%; Inhibition 4 [7]: 6.67%; Mean % [7]: 7.92%; Inhibition 1 ([8]; Receptor DAT, 10 μM): 56.29%; Inhibition 2 ([8]; Receptor DAT, 10 μM): 47.54%; Inhibition 3 ([8]; Receptor DAT, 10 μM): 58.45%; Inhibition 4 ([8]; Receptor DAT, 10 μM): 64.82%; Mean % [8, 11]: 56.78%
